Reference: patent publication US20220351806A1, “Biomarker Panels for Guiding Dysregulated Host Response Therapy” (Endpoint Health Inc., priority 2019, published 2022)

Tested on: sepsis patients
Test: VANISH trial survival analysis, hydrocortisone vs placebo, by patient subtype classifier
Type: in vivo, human
Parameters: mortality reduction in the placebo group in comparison to the hydrocortisone group / Mortality rate: concentration or dose not given beside the values
Conditions: for Alive / Dead / Mortality rate / Survival rate / Mortality Reduction Group: VANISH trial; for Alive / Dead / Mortality rate / Survival rate: Hydro group; for 28-day mortality reduction in the placebo group in comparison to the hydrocortisone group: VANISH; for Mortality Reduction Group: arm with lower mortality, Hydro vs Placebo
Excerpt: The test expression data from each trial were normalized by the platform normalization matrix described above^13 so that the test data were more consistent with the training data. The classifiers (e.g., the Full Model, the SS Model, the S Model, and the P Model) were then applied to the normalized data such that the patients were classified into A, B, and C subtypes. […] Therefore, each sample in the target samples was normalized independently with the normalization matrix of the sample array platform.
Survival and mortality rates were calculated at day 28 because survival and mortality labels at other time points were not available. […] Binomial and Chi-squared with continuity correction tests were used to test for the significance of these differences.
In one example, previously identified subtypes of sepsis patients were used to tune the model to identify these type A and B patients. Two distinct sepsis response signatures (SRS1 and SRS2) were identified in five public studies (E-MTAB-4421, E-MTAB-4451, E-MTAB-5273, E-MTAB-5274, and E-MTAB-7581), where HumanHT-12 v4 BeadChip were used to generate the gene expression profiles of the patient samples. The processed data of those five studies were downloaded and processed using R programming language and software environment for statistical analysis (version 3.6.3). The Bioconductor annotation package, illuminaHumanv4.db (version 1.26.0), was used to annotate microarray probes and expression levels of genes were determined by each individual probe or mean of probes belonging to the same gene. In order to remove cohort biases, the Bioconductor package, limma (version 3.42.2), was used to remove batch effects. Using ss.b2 panel genes, subtype A, B, and C scores were calculated by geometric mean of up/down genes.
To build the classifier, we defined E-MTAB-4421, E-MTAB-4451, E-MTAB-5273, and E-MTAB-5274 as the training dataset and VANISH (E-MTAB-7581) as the testing dataset. We used features (subtype A, B, and C scores) and class labels (SRS1 vs SRS2) in the training dataset to build a machine-learned classifier based on support-vector machine (SVM) method. SVM is a supervised machine learning method for classification analysis. The algorithm finds a single or a set of hyperplanes that maximize the margin among subtype A, B, and C scores. In order to capture non-linear data, the kernel function was used. R package e1071 was used to build the SVM classifier with following parameters: method=“C-classification”, kernal=“radial”, gamma=0.1, and cost=10.
The accuracy of the classifiers was evaluated by Leave-One-Out (LOO) cross-validation over the training dataset. Also the classifier was applied to 117 controlled samples from VANISH trial.
In addition to the SVM-method, thresholds can be employed to scores in order to define A vs. B labels. […] Therefore we applied a heuristic threshold (threshold=0) to subtype A and B scores to classify SRS1-like and SRS2-like in VANISH: SRS2-like label was assigned to samples with subtype A score >0 and subtype B score <0 and SRS1-like label was assigned to the rest of samples.
Besides the heuristic threshold, we also derived the thresholds for subtype A and B scores using the training dataset. Same as the SVM method, we defined E-MTAB-4421, E-MTAB-4451, E-MTAB-5273, and E-MTAB-5274 as the training dataset and VANISH (E-MTAB-7581) as the testing dataset.

[1] = day 28, Full Model, subtypes CA
[2] = day 28, SS.B2 Model (SVM), Total
[3] = day 28, SS.B2 Model (SVM), type A (SRS2-like)
[4] = day 28, SS.B2 Model (SVM), type B (SRS1-like)

Work on `C[C@]12CCC(=O)C=C1CC[C@@H]1[C@@H]2[C@@H](O)C[C@@]2(C)[C@H]1CC[C@]2(O)C(=O)CO` [Hydro, hydrocortisone] yielded an Alive (day 28, Full Model, subtype C) of 11, a Dead (day 28, Full Model, subtype C) of 8 and a Mortality rate (day 28, Full Model, subtype C) of 42.1%. For the same compound, the Survival rate (day 28, Full Model, subtype C) was 57.9%, the Alive [1] was 20 and the Dead [1] was 16. For the same compound, the Mortality rate [1] was 44.4%, the Survival rate [1] was 55.6% and the Alive (day 28, P Model, Total) was 36. It also gave a Dead (day 28, P Model, Total) of 22, a Mortality rate (day 28, P Model, Total) of 37.9% and a Survival rate (day 28, P Model, Total) of 62.1%. It also gave an Alive (day 28, P Model, subtype A) of 9, a Dead (day 28, P Model, subtype A) of 10 and a Mortality rate (day 28, P Model, subtype A) of 52.6%. The Survival rate (day 28, P Model, subtype A) was 47.4%, the Alive (day 28, P Model, subtype B) was 23 and the Dead (day 28, P Model, subtype B) was 8. It also gave a Mortality rate (day 28, P Model, subtype B) of 25.8%, a Survival rate (day 28, P Model, subtype B) of 74.2% and an Alive (day 28, P Model, subtype C) of 4. It also gave a Dead (day 28, P Model, subtype C) of 4, a Mortality rate (day 28, P Model, subtype C) of 50.0% and a Survival rate (day 28, P Model, subtype C) of 50.0%. The Alive (day 28, P Model, subtypes CA) was 13, the Dead (day 28, P Model, subtypes CA) was 14 and the Mortality rate (day 28, P Model, subtypes CA) was 51.9%. It also gave a Survival rate (day 28, P Model, subtypes CA) of 48.1%, an Alive (day 28, S Model, Total) of 20 and a Dead (day 28, S Model, Total) of 13. The Mortality rate (day 28, S Model, Total) was 39.4%, the Survival rate (day 28, S Model, Total) was 60.6% and the Alive (day 28, S Model, subtype A) was 16. For the same compound, the Dead (day 28, S Model, subtype A) was 9, the Mortality rate (day 28, S Model, subtype A) was 36.0% and the Survival rate (day 28, S Model, subtype A) was 64.0%. The Alive (day 28, S Model, subtype B) was 12, the Dead (day 28, S Model, subtype B) was 9 and the Mortality rate (day 28, S Model, subtype B) was 42.9%. The Survival rate (day 28, S Model, subtype B) was 57.1%, the Alive (day 28, S Model, subtype C) was 8 and the Dead (day 28, S Model, subtype C) was 4. For the same compound, the Survival rate (day 28, S Model, subtype C) was 66.7%, the Alive (day 28, S Model, subtypes CA) was 8 and the Dead (day 28, S Model, subtypes CA) was 4. The Survival rate (day 28, S Model, subtypes CA) was 66.7%, the Alive (day 28, SS Model, Total) was 36 and the Dead (day 28, SS Model, Total) was 22. The Mortality rate (day 28, SS Model, Total) was 37.9%, the Survival rate (day 28, SS Model, Total) was 62.1% and the Alive (day 28, SS Model, subtype A) was 15. The Dead (day 28, SS Model, subtype A) was 9, the Mortality rate (day 28, SS Model, subtype A) was 37.5% and the Survival rate (day 28, SS Model, subtype A) was 62.5%. For the same compound, the Alive (day 28, SS Model, subtype B) was 5, the Dead (day 28, SS Model, subtype B) was 5 and the Mortality rate (day 28, SS Model, subtype B) was 50.0%. It also gave a Survival rate (day 28, SS Model, subtype B) of 50.0%, an Alive (day 28, SS Model, subtype C) of 16 and a Dead (day 28, SS Model, subtype C) of 8. It also gave a Survival rate (day 28, SS Model, subtype C) of 66.7%, an Alive (day 28, SS Model, subtypes CA) of 31 and a Dead (day 28, SS Model, subtypes CA) of 17. The Survival rate (day 28, SS Model, subtypes CA) was 64.6%, the Alive [2] was 36 and the Dead [2] was 22. The Mortality rate [2] was 37.9%, the Survival rate [2] was 62.1% and the Alive [3] was 22. It also gave a Dead [3] of 14, a Mortality rate [3] of 38.9% and a Survival rate [3] of 61.1%. It also gave an Alive [4] of 14, a Dead [4] of 8 and a Mortality rate [4] of 36.4%. The Survival rate [4] was 63.6%, the “28-day mortality reduction in the placebo group in comparison to the hydrocortisone group” value (SRS2-like patients by ROC-derived thresholds (A threshold=-0.2664, B threshold=0.3179)) was 81.7% and the “28-day mortality reduction in the placebo group in comparison to the hydrocortisone group” value (SRS2-like patients by heuristic threshold=0 (A score >0, B score <0)) was 85.2%. For the same compound, the “Mortality Reduction Group” value (day 28, Full Model, Total) was “Placebo”, the “Mortality Reduction Group” value (day 28, Full Model, subtype A) was “Placebo” and the “Mortality Reduction Group” value (day 28, Full Model, subtype B) was “Hydro”. The “Mortality Reduction Group” value (day 28, Full Model, subtype C) was “Placebo”, the “Mortality Reduction Group” value [1] was “Placebo” and the “Mortality Reduction Group” value (day 28, P Model, Total) was “Placebo”. For the same compound, the “Mortality Reduction Group” value (day 28, P Model, subtype A) was “Placebo”, the “Mortality Reduction Group” value (day 28, P Model, subtype B) was “Hydro” and the “Mortality Reduction Group” value (day 28, P Model, subtype C) was “Placebo”. For the same compound, the “Mortality Reduction Group” value (day 28, P Model, subtypes CA) was “Placebo”, the “Mortality Reduction Group” value (day 28, SS Model, Total) was “Placebo” and the “Mortality Reduction Group” value (day 28, SS Model, subtype A) was “Placebo”. For the same compound, the “Mortality Reduction Group” value (day 28, SS Model, subtype B) was “Placebo”, the “Mortality Reduction Group” value (day 28, SS Model, subtype C) was “Placebo” and the “Mortality Reduction Group” value (day 28, SS Model, subtypes CA) was “Placebo”. The “Mortality Reduction Group” value [2] was “Placebo”, the “Mortality Reduction Group” value [3] was “Placebo” and the “Mortality Reduction Group” value [4] was “Hydro”. For the same compound, the “lower mortality in the placebo group when compared to the hydrocortisone therapy group” value (sepsis patients, 28-day, subtype A, Full Model) was 64.6%, the “lower mortality in the placebo group when compared to the hydrocortisone therapy group” value (sepsis patients, 28-day, subtype A, P Model) was 77.6% and the “lower mortality in the placebo group when compared to the hydrocortisone therapy group” value (sepsis patients, 28-day, subtype A, S Model) was 86.1%. For the same compound, the “lower mortality in the placebo group when compared to the hydrocortisone therapy group” value (sepsis patients, 28-day, subtype A, SS Model) was 86.0%, the “lower mortality in the hydrocortisone group when compared to the placebo group” value (sepsis patients, 28-day, subtype B, Full Model) was 35.2% and the “lower mortality in the placebo group when compared to the hydrocortisone therapy group” value (sepsis patients, 28-day, subtype C, Full Model) was 56.8%.
